Assay results as given in patent US9662362B2, “Composition and methods for clotting blood” (BYZMED LLC, priority 2009, dated 2017).

Test system: nose bleeding
Assay: Nose bleeding after abrasion of the nasal passage, checked by blowing nose and dabbing with tissue
Type: in vivo
Settings: visual check
From the text: Nose bleeding was caused by creating an abrasion to the nasal passage of a subject by use of a cotton swab irritating the nasal passage. The subject then blew their nose vigorously. The first test was to create an abrasion and pinching the nostril with no application of any product. Bleeding was checked at multiple time points, including the after 30 seconds, 60 seconds and 90 seconds by blowing ones nose 3 times and dabbing the area with a tissue to see if there was continued perfuse bleeding. […] After 90 seconds, the first test was then concluded. Next, the effect of glycerin on nose bleeding was determined. Glycerin was applied to the nasal passage after bleeding had started. Bleeding was checked at multiple time points, including the after 30 seconds, 60 seconds and 90 seconds by blowing ones nose 3 times and dabbing the area with a tissue to see if there was continued perfuse bleeding. […] After 90 seconds, the second test was then concluded. The effect of the disclosed clotting agent that included the active ingredients of […] betonica, achillea millefolium, marrubium vulgare, and urtica dioica application on nose bleeding was then determined. Bleeding was checked at multiple time points, including after 30 seconds, 60 seconds and 90 seconds by the subject blowing their nose 3 times and dabbing the area with a tissue to see if there was continued perfuse bleeding. […] After 90 seconds, there was no bleeding in the nasal passage. This part of the test was then concluded.

Measured: bleeding in the nasal passage

OCC(O)CO [Glycerin]
bleeding continued: after 30 seconds, applied to nasal passage after bleeding had started | after 60 seconds (1 minute) | after 90 seconds
